The text below walks through data of ChEMBL document CHEMBL1154903, “Cembranoids from the octocoral Sarcophyton ehrenbergi” (J Nat Prod, 2010).

For one experiment, the system named is HEL. The experiment in a line: Cytotoxicity against HEL cells by MTT assay. It is filed as cell-based. The settings on record: Homo sapiens. In general terms: Formazan colour is commonly taken as a measure of viable cells.
Another experiment has as its system Salmonella enterica. The experiment in a line: Antibacterial activity against Salmonella enteritidis ATCC 13076 at 250 ug/ml by disk diffusion method. It is filed as functional, organism-based. The following applies: Salmonella enterica subsp. enterica serovar Enteritidis. For orientation: A growth-free zone around the sample is the usual read-out of agar diffusion tests.

The test system of another experiment is Human betaherpesvirus 5. The experiment in a line: Antiviral activity against human cytomegalovirus infected HEL cells after 7 days by. It is filed as functional, organism-based. The following applies: Human betaherpesvirus 5, HEL, 168 h.
A further experiment deals with P388. The experiment in a line: Cytotoxicity against mouse P388 cells by MTT assay. It is filed as functional, cell-based.
For the next experiment, the system named is HT-29. The experiment in a line: Cytotoxicity against human HT-29 cells by MTT assay. It is filed as functional, cell-based.

The source made the active and inactive calls. No cut-off for these calls is given here.

Usually IC50 stands for the concentration that inhibits the measured activity by half. High values mean lower potency, low ones higher potency. On to `COC(=O)/C1=C/CC/C(C)=C/[C@@H]2OCC(C)=C2CC[C@@]2(C)O[C@@H]2CC1` [LOBOPHYNIN C], for which the half-maximal inhibitory concentration (IC50) in the experiment with HEL is over 50 µg/mL; with Human betaherpesvirus 5, 5.8 µM; in the experiment with P388, over 50 µg/mL; in the experiment on HT-29 it was over 50 µg/mL. Also, the result in the experiment with Salmonella enterica was inactive.

On to `C/C1=C\C=C(\C(C)C)CC[C@@]2(C)O[C@H](C1)C[C@@](C)(O)CC[C@@H]2O` [EHRENBEROXIDE B], for which the concentration for half-maximal inhibition (IC50) in the experiment on HEL is over 50 µg/mL; with Human betaherpesvirus 5, 4.7 µM; in the experiment with P388, over 50 µg/mL; in the experiment on HT-29, over 50 µg/mL. In addition, the outcome in the experiment on Salmonella enterica was inactive.

Take `COC(C)(C)/C1=C/C=C(\C)CC[C@@H]2O[C@@]2(C)CC/C=C(/C(=O)O)CC1` [EHRENBEROXIDE A]: the IC50 was over 50 µg/mL in the experiment with HEL, 24.8 µM in the experiment with Human betaherpesvirus 5, over 50 µg/mL in the experiment on P388 and over 50 µg/mL in the experiment on HT-29. Also, the outcome in the experiment on Salmonella enterica was inactive.
